Here are results for 1 cell line from the supplement of paper PMC10307832.

Experiment in all cases: relative viability (nuclei count vs DMSO), 5 days (fraction); higher = more cells survive
Compound in the experiment “RU-SKI 43 + Foretinib”: CC[C@@H](C)CNCC(=O)N1CCC2=C([C@@H]1COC3=CC=CC(=C3)C)C=CS2 [RU-SKI 43] + COc1cc2c(Oc3ccc(NC(=O)C4(C(=O)Nc5ccc(F)cc5)CC4)cc3F)ccnc2cc1OCCCN1CCOCC1 [Foretinib] (partner 0.25 µM)
The essentials: (§1)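 Lung cancer cell lines, seeded in 1536-well plates, were treated the following day by pin tool with a single drug or with five library-drug doses (not always all listed) in √10 steps on top of a fixed anchor-drug dose. Cells were fixed and nuclei stained in one step after 5 days, and nuclei were counted. Relative viability is the nuclei count for treated wells divided by that for vehicle wells, reported as medians of duplicate plates.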

Compound in the experiment “Irinotecan + Olaparib”: CCc1c2c(nc3ccc(OC(=O)N4CCC(N5CCCCC5)CC4)cc13)-c1cc3c(c(=O)n1C2)COC(=O)[C@]3(O)CC [Irinotecan] + O=C(c1cc(Cc2n[nH]c(=O)c3ccccc23)ccc1F)N1CCN(C(=O)C2CC2)CC1 [Olaparib] (partner 8 µM)
The essentials:
as §1

Compound in the experiment “MK-8033 + OSI-027”: Cn1cc(-c2cnc3ccc4ccc(CS(=O)(=O)NCc5ccccn5)cc4c(=O)c3c2)cn1 [MK-8033] + COc1cccc2cc(-c3nc([C@H]4CC[C@H](C(=O)O)CC4)n4ncnc(N)c34)[nH]c12 [OSI-027] (partner 0.5 µM)
The essentials: as §1

Compound in the experiment “RU-SKI 43 + Crizotinib”: CC[C@@H](C)CNCC(=O)N1CCC2=C([C@@H]1COC3=CC=CC(=C3)C)C=CS2 [RU-SKI 43] + C[C@@H](Oc1cc(-c2cnn(C3CCNCC3)c2)cnc1N)c1c(Cl)ccc(F)c1Cl [Crizotinib] (partner 1 µM)
The essentials:
as §1

With UMC-11, the relative viability in the experiment with RU-SKI 43 + Foretinib (first compound 0.1 µM) turned out to be 1.07; with RU-SKI 43 + Foretinib (first compound 0.3162 µM) it was 1.14; in the experiment with RU-SKI 43 + Foretinib (first compound 1 µM), 1.05; with RU-SKI 43 + Foretinib (first compound 3.162 µM), 1.14; in the experiment with RU-SKI 43 + Foretinib (first compound 10 µM), 1.03; in the experiment with Irinotecan + Olaparib (first compound 0.6325 µM), 0.273. The relative viability with Irinotecan + Olaparib (first compound 2 µM) came out at 0.206; in the experiment with Irinotecan + Olaparib (first compound 6.325 µM), 0.283; with Irinotecan + Olaparib (first compound 20 µM), 0.226; in the experiment with MK-8033 + OSI-027 (first compound 0.02 µM), 0.483; with MK-8033 + OSI-027 (first compound 0.06325 µM), 0.447; with MK-8033 + OSI-027 (first compound 0.2 µM), 0.381. Further, the relative viability in the experiment with MK-8033 + OSI-027 (first compound 2 µM) turned out to be 0.457; with RU-SKI 43 + Crizotinib (first compound 0.1 µM), 0.763; with RU-SKI 43 + Crizotinib (first compound 0.3162 µM), 0.707; with RU-SKI 43 + Crizotinib (first compound 1 µM), 0.664; with RU-SKI 43 + Crizotinib (first compound 3.162 µM), 0.654; with RU-SKI 43 + Crizotinib (first compound 10 µM), 0.399.
